Measurements from patent US6642020B2, “Process for preparing cephalosporin derivatives” (Bioferma Murcia S.A., priority 2001, dated 2003).

Test: Stability of cephalosporin C solution without thiol on heating
Format: physicochemical
Conditions: aqueous cephalosporin C solution without the thiol, 80° C.

Q: Which “time to complete degradation (β-lactam ring degradation)” value does the source give for `CC(=O)OCC1=C(C(=O)O)N2C(=O)C(NC(=O)CCC[C@@H](N)C(=O)O)[C@H]2SC1` (stereo partly drawn) [cephalosporin C, 3-acetoxymethyl-7-(D-5-amino-5-carboxypentan amido)-ceph-3-em-4-carboxylic acid] here?
A: The value was at most 40 min.
